Laboratory results as given in patent US20220009918A1, “Chemical Compounds” (GlaxoSmithKline Intellectual Property Development Limited, priority 2018, published 2022).

Target: T1, human H-PGDS (Homo sapiens, UniProt O60760)
T1 construct: Full length human H-PGDS cDNA (Invitrogen Ultimate ORF IOH13026) was amplified by PCR; 6-His (N); TEV protease cleavage site (N); made in house; host or cells: E. coli BL21 (DE3*) for H-PGDS; Sf9 insect cells (baculovirus) for COX-2
Test: H-PGDS RapidFire high throughput mass spectrometry assay
Format: biochemical
Conditions: inhibition of conversion of PGH2 to PGD2 by H-PGDS; mean pIC50; read-out: Potency Range (mean pIC50) (converted)
Method in brief: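 Full-length His-tagged human H-PGDS from E. coli converted PGH2, generated in situ (~10 μM burst) from arachidonic acid by FLAG-tagged human COX-2 (Sf9-expressed). PGD2 and PGF2α (substrate surrogate) were measured by RapidFire SPE-triple quadrupole MS. Percent conversion was calculated, and inhibition was taken as reduced conversion.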

T1 sequence (O60760 whole entry): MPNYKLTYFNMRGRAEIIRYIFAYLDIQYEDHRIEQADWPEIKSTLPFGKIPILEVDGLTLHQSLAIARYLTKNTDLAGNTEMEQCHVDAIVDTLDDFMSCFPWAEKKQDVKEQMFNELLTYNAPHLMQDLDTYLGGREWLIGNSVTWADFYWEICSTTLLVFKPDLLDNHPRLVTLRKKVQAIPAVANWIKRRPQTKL

Row | Compound | IC50
1 | COc1cccc(-c2ncc(C(=O)N[C@H]3CCNC3=O)s2)c1 [Example 68, (S)-2-(3-Methoxyphenyl)-N-(2-oxopyrrolidin-3-yl)thiazole-5-carboxamide] | 0.0102 to 0.1 µM
2 | O=C(N[C@H]1CCNC1=O)c1cnc(-c2cccc(O)c2)s1 [Example 69, (S)-2-(3-Hydroxyphenyl)-N-(2-oxopyrrolidin-3-yl)thiazole-5-carboxamide] | 0.0102 to 0.1 µM
3 | C[C@]1(NC(=O)c2cnc(-c3cc(F)cc(Cl)c3)s2)CCNC1=O [Example 72, (S)-2-(3-Chloro-5-fluorophenyl)-N-(3-methyl-2-oxopyrrolidin-3-yl)thiazole-5-carboxamide] | 0.0102 to 0.1 µM
4 | C[C@@]1(NC(=O)c2cnc(-c3cc(F)cc(Cl)c3)s2)CCNC1=O [Example 73, (R)-2-(3-Chloro-5-fluorophenyl)-N-(3-methyl-2-oxopyrrolidin-3-yl)thiazole-5-carboxamide] | 0.102 to 1 µM
5 | C[C@H]1CNC(=O)[C@H]1NC(=O)c1cnc(-c2cc(F)cc(Cl)c2)s1 [Example 75, 2-(3-Chloro-5-fluorophenyl)-N-((3S,4S)-4-methyl-2-oxopyrrolidin-3-yl)thiazole-5-carboxamide] | 0.0102 to 0.1 µM
6 | C[C@@H]1CNC(=O)[C@@H]1NC(=O)c1cnc(-c2cc(F)cc(Cl)c2)s1 [Example 76, 2-(3-Chloro-5-fluorophenyl)-N-((3R,4R)-4-methyl-2-oxopyrrolidin-3-yl)thiazole-5-carboxamide] | 1.02 to 10 µM
7 | O=C(N[C@H]1CCNC1=S)c1cnc(-c2cc(F)cc(Cl)c2)s1 [Example 77, (S)-2-(3-Chloro-5-fluorophenyl)-N-(2-thioxopyrrolidin-3-yl)thiazole-5-carboxamide] | 0.00102 to 0.01 µM
8 | O=C(N[C@H]1CCNC1=[Se])c1cnc(-c2cc(F)cc(Cl)c2)s1 [Example 78, (S)-2-(3-chloro-5-fluorophenyl)-N-(2-selenoxopyrrolidin-3-yl)thiazole-5-carboxamide] | 0.00102 to 0.01 µM
9 | O=C(NN1CCNC1=O)c1cnc(-c2cc(F)cc(Cl)c2)s1 [Example 79, 2-(3-Chloro-5-fluorophenyl)-N-(2-oxoimidazolidin-1-yl)thiazole-5-carboxamide] | 0.0102 to 0.1 µM
10 | O=C1NCC[C@@H]1NC(=S)c1cnc(-c2cc(F)cc(Cl)c2)s1 [Example 80, (S)-2-(3-chloro-5-fluorophenyl)-N-(2-oxopyrrolidin-3-yl)thiazole-5-carbothioamide] | 0.00102 to 0.01 µM
11 | C[C@H]1C[C@H](NC(=O)c2cnc(-c3cc(F)cc(Cl)c3)s2)C(=O)N1 [Example 81, 2-(3-Chloro-5-fluorophenyl)-N-((3S,5S)-5-methyl-2-oxopyrrolidin-3-yl)thiazole-5-carboxamide] | 0.00102 to 0.01 µM
12 | CC1(C)C[C@@H](NC(=O)c2cnc(-c3cc(F)cc(Cl)c3)s2)C(=S)N1 [Example 84, (R)-2-(3-Chloro-5-fluorophenyl)-N-(5,5-dimethyl-2-thioxopyrrolidin-3-yl)thiazole-5-carboxamide] | 0.102 to 1 µM
13 | CC1(C)C[C@H](NC(=O)c2cnc(-c3cc(F)cc(Cl)c3)s2)C(=S)N1 [Example 85, (S)-2-(3-Chloro-5-fluorophenyl)-N-(5,5-dimethyl-2-thioxopyrrolidin-3-yl)thiazole-5-carboxamide] | 0.00102 to 0.01 µM
14 | O=C1NCC[C@@H]1NS(=O)(=O)c1cnc(-c2ccccc2)s1 [Example 86, (S)-N-(2-Oxopyrrolidin-3-yl)-2-phenylthiazole-5-sulfonamide] | > 10 µM
